Results published in paper PMC6915887, “Inhibition of human carboxylesterases by ginsenosides: structure–activity relationships and inhibitory mechanism” (Chinese Medicine, 2019).
Read-outs that look alike come from different tables or passages of the source. Values belong to the molecule of their own block, whether it stands above or below them.

Key:
[1] = biological target: T1, hCES1A (Homo sapiens, UniProt P23141); test: hCES1A inhibition assay (DME hydrolysis in HLM); assay type: biochemical; conditions: for inhibition of hCES1A-mediated DME hydrolysis (residual activity screen): HLM, ginsenoside 100 μM, result in words;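 on all read-outs here: Read-out is D-luciferin luminescence formed from DME (3 µM) after 10 min at 37 °C in pH 6.5 PBS, HLM 1 µg/mL, inhibitor preincubated 3 min, oleanic acid as positive control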
T1 construct: tissue Bioreclamation IVT lot no; X008067; host or cells: pooled human liver microsomes (50 donors)
T1 sequence (P23141 18-567): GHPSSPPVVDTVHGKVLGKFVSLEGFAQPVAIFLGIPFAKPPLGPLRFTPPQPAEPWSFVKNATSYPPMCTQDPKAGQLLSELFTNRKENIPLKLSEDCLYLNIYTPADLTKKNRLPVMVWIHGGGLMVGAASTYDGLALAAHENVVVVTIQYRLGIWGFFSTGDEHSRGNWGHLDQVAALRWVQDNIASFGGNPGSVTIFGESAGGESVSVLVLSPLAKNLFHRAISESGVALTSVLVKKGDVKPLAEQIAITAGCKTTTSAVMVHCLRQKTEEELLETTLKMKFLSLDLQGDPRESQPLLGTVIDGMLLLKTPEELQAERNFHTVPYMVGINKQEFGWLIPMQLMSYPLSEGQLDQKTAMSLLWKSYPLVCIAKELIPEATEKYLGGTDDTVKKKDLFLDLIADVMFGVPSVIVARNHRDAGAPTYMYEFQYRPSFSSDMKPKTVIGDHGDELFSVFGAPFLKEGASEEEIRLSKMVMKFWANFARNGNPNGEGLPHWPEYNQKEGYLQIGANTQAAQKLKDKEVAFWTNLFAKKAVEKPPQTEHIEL
Protocol: DME hydrolysis was used as the probe reaction to assay the inhibitory effects of 25 ginsenosides against hCES1A, oleanic acid was used as a positive control of inhibition assays [43]. The incubation system contains 91 μL PBS (0.1 M pH 6.5), 5 μL HLM (1 μg/mL, final concentration) and 2 μL corresponding inhibitor. After pre-incubating the reaction mixture for 3 min at 37 °C, the reaction was started by adding 2 μL DME (3 μM, final concentration) with a total volume of 100 μL, in which the final content of DMSO was limited to 2% (v/v). After incubating for 10 min at 37 °C in a shaking bath, LDR (50 μL, equal volume of the incubation mixture) was added to terminate the reaction. The luminescence signals of D-luciferin (the hydrolytic metabolite of DME) was measured (excitation wavelength 580 nm) by a multi-mode microplate reader (SpectraMax® iD3, Molecular Devices, Austria).
(§1) All inhibition assays were performed in triplicate, nonlinear regression was used to determine the IC50 and Ki values with GraphPad Prism 7.0 software (GraphPad Software, Inc., La Jolla, USA).

[2] = biological target: T2, hCES2A (Homo sapiens, UniProt O00748); test: hCES2A inhibition assay (FD hydrolysis in HLM); assay type: biochemical; conditions: for Specificity (hCES1A/hCES2A): ratio of IC50 values in HLM; for inhibition of hCES2A-mediated FD hydrolysis (residual activity screen): HLM, ginsenoside 100 μM, result in words;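 on all read-outs here: HLM at 1 µg/mL in 0.1 M PBS pH 7.4, kinetic read at 37 °C every 30 s over 30 min, triplicate runs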
T2 construct: tissue Bioreclamation IVT lot no; X008067; host or cells: pooled human liver microsomes (50 donors)
T2 sequence (O00748 27-559): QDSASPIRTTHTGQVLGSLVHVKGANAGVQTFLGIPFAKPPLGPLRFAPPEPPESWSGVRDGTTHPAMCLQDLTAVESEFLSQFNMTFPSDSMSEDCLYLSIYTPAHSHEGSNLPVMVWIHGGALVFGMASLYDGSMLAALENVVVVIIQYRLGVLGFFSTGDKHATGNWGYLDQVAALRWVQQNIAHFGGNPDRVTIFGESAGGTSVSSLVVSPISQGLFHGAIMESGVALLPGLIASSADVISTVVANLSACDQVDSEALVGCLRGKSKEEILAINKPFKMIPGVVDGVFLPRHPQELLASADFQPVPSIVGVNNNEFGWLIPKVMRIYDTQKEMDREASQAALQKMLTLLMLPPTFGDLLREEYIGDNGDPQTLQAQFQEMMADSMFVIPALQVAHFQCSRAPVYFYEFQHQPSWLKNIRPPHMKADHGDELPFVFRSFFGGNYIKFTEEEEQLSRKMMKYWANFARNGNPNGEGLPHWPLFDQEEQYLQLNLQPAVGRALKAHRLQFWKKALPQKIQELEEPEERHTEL
Protocol: The incubation system contains 2 μL HLM (1 μg/mL, final concentration), 194 μL PBS (0.1 M pH 7.4) and 2 μL corresponding inhibitor. […] The kinetic parameters were set at 30 reads, with an interval of 30 s (30 min) and shake during 5 s before the first read at 37 °C.
as §1

[3] = HLM as enzyme source, DME hydrolysis as probe reaction, read-out: IC50 (μM) hCES1A
[4] = HLM as enzyme source, FD hydrolysis as probe reaction, read-out: IC50 (μM) hCES2A

SMILES: CC(C)=CCC[C@](C)(O[C@@H]1O[C@H](CO)[C@@H](O)[C@H](O)[C@H]1O)[C@H]1CC[C@]2(C)[C@@H]1[C@H](O)C[C@@H]1[C@@]3(C)CC[C@H](O)C(C)(C)[C@@H]3CC[C@]12C [C-K, ginsenoside C-K]
IC50 [1, 3]: > 100 µM

SMILES: CC(C)=CCC[C@](C)(O[C@@H]1O[C@H](CO[C@@H]2O[C@@H](CO)[C@H](O)[C@H]2O)[C@@H](O)[C@H](O)[C@H]1O)[C@H]1CC[C@]2(C)[C@@H]1[C@H](O)C[C@@H]1[C@@]3(C)CC[C@H](O[C@@H]4O[C@H](CO)[C@@H](O)[C@H](O)[C@H]4O[C@@H]4O[C@H](CO)[C@@H](O)[C@H](O)[C@H]4O)C(C)(C)[C@@H]3CC[C@]12C [Rc]
Specificity (hCES1A/hCES2A) [2]: >1.22
IC50 [1, 3]: > 100 µM

SMILES: CC(C)=CCC[C@](C)(O[C@@H]1O[C@H](CO)[C@@H](O)[C@H](O)[C@H]1O)[C@H]1CC[C@]2(C)[C@@H]1[C@H](O)C[C@@H]1[C@@]3(C)CC[C@H](O)C(C)(C)[C@@H]3[C@@H](O[C@@H]3O[C@H](CO)[C@@H](O)[C@H](O)[C@H]3O[C@@H]3O[C@@H](C)[C@H](O)[C@@H](O)[C@H]3O)C[C@]12C [Re, ginsenoside Re]
IC50 [2, 4]: > 100 µM
inhibition of hCES2A-mediated FD hydrolysis (residual activity screen) [2]: hardly inhibit
IC50 [1, 3]: > 100 µM
inhibition of hCES1A-mediated DME hydrolysis (residual activity screen) [1]: hardly inhibit

SMILES: CC(C)=CCC[C@](C)(O[C@@H]1O[C@H](CO[C@@H]2OC[C@@H](O)[C@H](O)[C@H]2O)[C@@H](O)[C@H](O)[C@H]1O)[C@H]1CC[C@]2(C)[C@@H]1[C@H](O)C[C@@H]1[C@@]3(C)CC[C@H](O[C@@H]4O[C@H](CO)[C@@H](O)[C@H](O)[C@H]4O[C@@H]4O[C@H](CO)[C@@H](O)[C@H](O)[C@H]4O)C(C)(C)[C@@H]3CC[C@]12C [Rb3]
IC50 [2, 4]: > 100 µM
inhibition of hCES2A-mediated FD hydrolysis (residual activity screen) [2]: hardly inhibit
IC50 [1, 3]: > 100 µM
inhibition of hCES1A-mediated DME hydrolysis (residual activity screen) [1]: hardly inhibit

SMILES: CC(C)=CCC[C@](C)(O[C@@H]1O[C@H](CO[C@@H]2OC[C@H](O)[C@H](O)[C@H]2O)[C@@H](O)[C@H](O)[C@H]1O)[C@H]1CC[C@]2(C)[C@@H]1[C@H](O)C[C@@H]1[C@@]3(C)CC[C@H](O[C@@H]4O[C@H](CO)[C@@H](O)[C@H](O)[C@H]4O[C@@H]4O[C@H](CO)[C@@H](O)[C@H](O)[C@H]4O)C(C)(C)[C@@H]3CC[C@]12C [Rb2]
IC50 [2, 4]: > 100 µM
inhibition of hCES2A-mediated FD hydrolysis (residual activity screen) [2]: hardly inhibit
IC50 [1, 3]: > 100 µM
inhibition of hCES1A-mediated DME hydrolysis (residual activity screen) [1]: hardly inhibit

SMILES: CC(C)=CCC[C@](C)(O)C1CC[C@]2(C)C1[C@H](O)CC1[C@@]3(C)CC[C@H](O[C@@H]4O[C@H](CO)[C@@H](O)[C@H](O)[C@H]4O[C@@H]4O[C@H](CO)[C@@H](O)[C@H](O)[C@H]4O)C(C)(C)C3CC[C@]12C (some centres unmarked) [Rg3]
Specificity (hCES1A/hCES2A) [2]: > 9.64
IC50 [1, 3]: > 100 µM

SMILES: CC(C)=CCC[C@](C)(O[C@@H]1O[C@H](CO)[C@@H](O)[C@H](O)[C@H]1O)[C@H]1CC[C@]2(C)[C@@H]1[C@H](O)C[C@@H]1[C@@]3(C)CC[C@H](O)C(C)(C)[C@@H]3[C@@H](O)C[C@]12C [F1, ginsenoside F1]
Specificity (hCES1A/hCES2A) [2]: > 2.70
IC50 [1, 3]: > 100 µM

SMILES: CC1(C)CCC[C@](C)([C@H]2CC[C@]3(C)[C@@H]2[C@H](O)C[C@@H]2[C@@]4(C)CC[C@H](O)C(C)(C)[C@@H]4[C@@H](O)C[C@]23C)O1 [Panaxatriol, panaxatriol]
IC50 [1, 3]: 34.9 ± 6.16 µM

SMILES: CC(C)=CCC[C@](C)(O[C@@H]1O[C@H](CO)[C@@H](O)[C@H](O)[C@H]1O)C1CC[C@]2(C)C1[C@H](O)CC1[C@@]3(C)CC[C@H](O)C(C)(C)C3[C@@H](O[C@@H]3O[C@H](CO)[C@@H](O)[C@H](O)[C@H]3O[C@@H]3OC[C@@H](O)[C@H](O)[C@H]3O)C[C@]12C (some centres unmarked) [R1, ginsenoside R1]
IC50 [2, 4]: > 100 µM
IC50 [1, 3]: > 100 µM

SMILES: CC(C)=CCC[C@](C)(O)[C@H]1CC[C@]2(C)[C@@H]1[C@H](O)C[C@@H]1[C@@]3(C)CC[C@H](O)C(C)(C)[C@@H]3[C@@H](O[C@@H]3O[C@H](CO)[C@@H](O)[C@H](O)[C@H]3O)C[C@]12C [Rh1, ginsenoside Rh1]
IC50 [2]: > 100 µM
IC50 [1]: > 100 µM

SMILES: CC(C)=CCC[C@](C)(O[C@@H]1O[C@H](CO)[C@@H](O)[C@H](O)[C@H]1O)[C@H]1CC[C@]2(C)[C@@H]1[C@H](O)C[C@@H]1[C@@]3(C)CC[C@H](O)C(C)(C)[C@@H]3[C@@H](O[C@@H]3O[C@H](CO)[C@@H](O)[C@H](O)[C@H]3O)C[C@]12C [Rg1, ginsenoside Rg1]
IC50 [2, 4]: > 100 µM
inhibition of hCES2A-mediated FD hydrolysis (residual activity screen) [2]: hardly inhibit
IC50 [1, 3]: > 100 µM
inhibition of hCES1A-mediated DME hydrolysis (residual activity screen) [1]: hardly inhibit

IC50 [2, 4]: > 100 µM
IC50 [1, 3]: > 100 µM
SMILES: CC1(C)CCC2(C(=O)OC3OC(CO)C(O)C(O)C3O)CCC3(C)C(=CCC4C5(C)CCC(OC6OC(C(=O)O)C(O)C(O)C6OC6OC(CO)C(O)C(O)C6O)C(C)(C)C5CCC43C)C2C1 (centres unmarked) [Ro]

SMILES: CC(C)=CC/C=C(\C)[C@H]1CC[C@]2(C)[C@@H]1[C@H](O)C[C@@H]1[C@@]3(C)CC[C@H](O)C(C)(C)[C@@H]3[C@@H](O[C@@H]3O[C@H](CO)[C@@H](O)[C@H](O)[C@H]3O)C[C@]12C [Rh4]
IC50 [1, 3]: > 100 µM

SMILES: CC(C)=CCC[C@](C)(O)[C@H]1CC[C@]2(C)[C@@H]1[C@H](O)C[C@@H]1[C@@]3(C)CC[C@H](O[C@@H]4O[C@H](CO)[C@@H](O)[C@H](O)[C@H]4O)C(C)(C)[C@@H]3CC[C@]12C [Rh2]
Specificity (hCES1A/hCES2A) [2]: > 18.86
IC50 [1]: > 100 µM

SMILES: CC1(C)CC[C@]2(C(=O)O)CC[C@]3(C)C(=CC[C@@H]4[C@@]5(C)CC[C@H](O)C(C)(C)[C@@H]5CC[C@]43C)[C@@H]2C1 [oleanic acid, reference compound]
IC50 [1, 3]: 0.1 µM

SMILES: CC(C)=CCC[C@](C)(O[C@@H]1O[C@H](CO)[C@@H](O)[C@H](O)[C@H]1O)[C@H]1CC[C@]2(C)[C@@H]1[C@H](O)C[C@@H]1[C@@]3(C)CC[C@H](O[C@@H]4O[C@H](CO)[C@@H](O)[C@H](O)[C@H]4O)C(C)(C)[C@@H]3CC[C@]12C [F2]
IC50 [1, 3]: > 100 µM

SMILES: CC(C)=CCC[C@](C)(O[C@@H]1O[C@H](CO[C@@H]2O[C@H](CO)[C@@H](O)[C@H](O)[C@H]2O)[C@@H](O)[C@H](O)[C@H]1O)[C@H]1CC[C@]2(C)[C@@H]1[C@H](O)C[C@@H]1[C@@]3(C)CC[C@H](O[C@@H]4O[C@H](CO)[C@@H](O)[C@H](O)[C@H]4O[C@@H]4O[C@H](CO)[C@@H](O)[C@H](O)[C@H]4O)C(C)(C)[C@@H]3CC[C@]12C [Rb1]
IC50 [2, 4]: > 100 µM
inhibition of hCES2A-mediated FD hydrolysis (residual activity screen) [2]: hardly inhibit
IC50 [1, 3]: > 100 µM
inhibition of hCES1A-mediated DME hydrolysis (residual activity screen) [1]: hardly inhibit

SMILES: CC(C)=CCC[C@](C)(O[C@@H]1O[C@H](CO)[C@@H](O)[C@H](O)[C@H]1O)[C@H]1CC[C@]2(C)[C@@H]1[C@H](O)C[C@@H]1[C@@]3(C)CC[C@H](O[C@@H]4O[C@H](CO)[C@@H](O)[C@H](O)[C@H]4O[C@@H]4O[C@H](CO)[C@@H](O)[C@H](O)[C@H]4O)C(C)(C)[C@@H]3CC[C@]12C [Rd]
Specificity (hCES1A/hCES2A) [2]: > 7.12
IC50 [1, 3]: > 100 µM

SMILES: CC(C)=CC/C=C(/C)C1CC[C@]2(C)C1[C@H](O)CC1[C@@]3(C)CC[C@H](O)C(C)(C)C3[C@@H](O[C@@H]3O[C@H](CO)[C@@H](O)[C@H](O)[C@H]3O[C@@H]3O[C@@H](C)[C@H](O)[C@@H](O)[C@H]3O)C[C@]12C (some centres unmarked) [F4]
Specificity (hCES1A/hCES2A) [2]: > 2.22
IC50 [1, 3]: > 100 µM

SMILES: CC1(C)CCC[C@](C)([C@H]2CC[C@]3(C)[C@@H]2[C@H](O)C[C@@H]2[C@@]4(C)CC[C@H](O)C(C)(C)[C@@H]4CC[C@]23C)O1 [Panaxadiol, panaxadiol]
inhibition of hCES2A-mediated FD hydrolysis (residual activity screen) [2]: strong or moderate inhibition
Specificity (hCES1A/hCES2A) [2]: 1.84
IC50 [1, 3]: 6.95 ± 1.29 µM

SMILES: CC(C)=CCC[C@](C)(O)[C@H]1CC[C@]2(C)[C@@H]1[C@H](O)C[C@@H]1[C@@]3(C)CC[C@H](O)C(C)(C)[C@@H]3[C@@H](O[C@@H]3O[C@H](CO)[C@@H](O)[C@H](O)[C@H]3O[C@@H]3O[C@@H](C)[C@H](O)[C@@H](O)[C@H]3O)C[C@]12C [Rg2, ginsenoside Rg2]
IC50 [2, 4]: > 100 µM
inhibition of hCES2A-mediated FD hydrolysis (residual activity screen) [2]: hardly inhibit
IC50 [1, 3]: > 100 µM
inhibition of hCES1A-mediated DME hydrolysis (residual activity screen) [1]: hardly inhibit
